Measured values from publication doi:10.1101/2022.10.28.514248v1 (biorxiv, 2022).
Where a chain is given by its changes, count along the chain named.

Key:
GDAP1ΔTM [1] = target: T1, GDAP1ΔTM (Mus musculus, UniProt O88741); test: anti-4HNE Western blot of Michael adduct formation, Hill fit; type: biochemical
T1 sequence (O88741 1-322): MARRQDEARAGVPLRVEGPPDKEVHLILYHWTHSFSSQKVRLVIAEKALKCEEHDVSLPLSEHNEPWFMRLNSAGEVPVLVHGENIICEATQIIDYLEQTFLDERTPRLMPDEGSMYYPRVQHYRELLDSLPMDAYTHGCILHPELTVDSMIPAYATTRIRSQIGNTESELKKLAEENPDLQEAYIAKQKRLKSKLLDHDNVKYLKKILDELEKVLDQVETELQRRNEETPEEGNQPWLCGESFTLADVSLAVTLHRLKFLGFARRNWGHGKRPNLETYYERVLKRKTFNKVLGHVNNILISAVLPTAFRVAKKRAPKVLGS

GDAP1ΔTM [2] = target: T2, GDAP1ΔTM (Mus musculus, UniProt O88741, T157P); test: native PAGE titration, band quantification, Hill fit; type: binding
T2 sequence (O88741 1-322 T157P): T1 sequence (O88741 1-322) with T157P

GDAP1ΔTM [3] = target: T1, GDAP1ΔTM; test: as above; type: binding
GDAP1ΔTM [4] = target: T1, GDAP1ΔTM; test: fluorescence polarization, N-terminally fluorescein-labelled protein; type: binding

SMILES | EC50 (GDAP1ΔTM [1]) [µM] | Kd (GDAP1ΔTM [2]) [µM] | Kd (GDAP1ΔTM [3]) [µM] | Kd (GDAP1ΔTM [4]) [µM]
CCCCCC(O)/C=C/C=O (stereo not shown) [4-hydroxynonenal] | 241 ± 52 | 1330 ± 259 | 398 | 
O=C(O)CCCCCCCCCCCCCCC(=O)O [thapsic acid] |  |  |  | ~34
